Assay results from patent US20140194506A1, “Use of Potassium Piperonyl Pentadienoate for Lowering Blood Lipid” (INNER MONGOLIA UNIVERSITY, priority 2011, published 2014).
Several values for one entry are separate records, joined by “and”; a condition that tells them apart may be missing. Equal values may be shown once.

What was measured:
[1] = test system: high lipid mode white rats; experiment: Therapeutic blood lipid lowering in hyperlipoidemia mode white rats (Example 3); type: in vivo, Wistar male white rats
Description: High lipid feed formula: cholesterol 3%, lard 10%, sodium cholate 0.5%, basal feed: 86.5% (formula: flour 17.14%, rice flour 8.57%, maize 17.14%, bran 21%, fish flour 1.71%, dairy salt 0.857%, vitamin 0.085%, bean material 17.14%).
72 Wistar white male rats of 170±10 g of body weight were divided into 6 groups randomly and numbered. Each group included 12 rats. The rats were fed with common standard feed under experimental conditions and observed for 7 days, and its blood was sampled from tail for testing serum total cholesterol (TC). […] From the 8th day, the group I was set as a blank group, and was fed with common standard feed. Other groups were fed with high lipid feed for 8 days in a row, and the blood was sampled from tail on the next day for testing TC. […] The rats then were divided into 5 groups randomly (see table 12) according to TC levels. Each group included 10 rats (10 rats who were unsuccessful blood lipid modes were discarded). The rats were ted with high lipid teed continuously. Group was a high lipid feed mode control group. Group III was a Simvastatin 10 mg/kg group. Group IV was a GB-O group. Group V was a GB-H group. Group VI was a GB-K group. The high lipid feed mode control group was fed with high lipid feed together with distilled water. Groups III, IV, V, and VI were fed with high lipid feed together with required simvastatin, GB-O, GB-H, and GB-K suspensions (formulated by grinding with 0.5% sodium carboxymethycellulose CMC-Na) respectively. The dosing amount was 0.046 mmol/kg, and the amount of high lipid feed was 20 g per day for each rat. The grouping and the dosing amount for each group can be found in table 13.
(§1) The body weights of white rats were determined and recorded every day. The rats for each group were dosed basing, on its body weight by feeding for 14 days at 22° C. of room temperature and 40-50% of relative humidity. On the 14th day, after fasting and freely receiving water for 16 hours, the blood was sampled from aorta, placed for 30 min to blood coagulate, centrifugated for 15 min at 3000 r/min to separate serum. The values of serum total cholesterol (TC), and triglyceride (TG) were determined on an automatic analyzer using enzymatic colorimetry, the value of high density lipoprotein cholesterol (HDL) was determined using a phosphotungstic acid-Mg precipitation method, and the value of low density lipoprotein cholesterol (LDL) was determined using a polyvinyl sulfate precipitation method.
(§2) All data were treated statistically, and are presented as means standard deviations (x±s). The significance of difference was judged by T test. The calculation of p value was obtained by comparing the high lipid mode group with the blank control group, and comparing other test drug groups with the high lipid mode group.
The reaction temperature was 37° C. The cholesterol ester in serum was first hydrolyzed into free cholesterol (FC) and fatty acid with cholesterol ester hydrolase (CEH.) Then, all FC in serum was oxidized into ch-4-en-3-one and H2O2) with cholesterol oxidase (COD). The resulting H2O2, was reacted with 4-aminoantipyrine (4-AAP) and 4-chlorophenol in the presence of peroxidase (POD) (Trinder reaction), to yield red quinine imine, which was colarimetrically tested at 500 nm wavelength.
The reaction temperature was 37° C. The triglyceride in serum was first hydrolyzed into glycerol and fatty acid with lipoprotein lipase (LPL). The resulting glycerol was reacted with ATP in the presence of glycerol kinase (GK), to produce glycerol-3-phosphate and ADP. The resulting glycerol-3-phosphate was oxidized into dihydroxyacetone phosphate and H2O2 with oxygen in the presence of glycerol phosphate oxidase (GPO). […]

[2] = test system: high lipid mode white rats; experiment: Prophylactic blood lipid lowering in high lipid feed white rats (Example 2); type: in vivo, Wistar male white rats
Description: High lipid feed formula: cholesterol 3%, lard 10%, sodium cholate 0.5%, basal feed: […] (formula: flour 17.14%, rice flour 8.57%, maize […], bran 21%, fish flour 1.71%, dairy salt 0.857%, vitamin 0.085%, bean material 17.14%).
60 Wistar White male rats of 150±10 g of body weight were fed with common standard feed for 5 days, and then divided into 6 groups randomly. Each group included 10 rats. Group I was a blank group, where the rats were fed with common standard feed. Group II was a high lipid feed mode control group. Group III was a Simvastatin 10 mg/kg group. Group IV was a GB-O group. Group V was a GB-H group. Group VI was a GB-K group. High lipid feed mode control group were fed with high lipid feed together with distilled water. Groups III, IV, V, and VI were fed with high lipid feed together with required simvastatin, GB-O, GB-H, and GB-K suspensions (formulated by grinding with 0.5% sodium […] CMC-Na) respectively. The dosing amount was 0.046 mmol/kg, and the amount of high lipid feed was 20 g per day for each rat. The grouping and the dosing amount for each group can be found in table 1.
as §1, with “The rats in each group” for “The rats for each group”, “were dosed basing on its” for “were dosed basing, on its”, “16 hours, its blood was” for “16 hours, the blood was”, “blood coagulate, and centrifugated for” for “blood coagulate, centrifugated for”, “determined using the polyvinyl sulfate” for “determined using a polyvinyl sulfate”
as §2, with “were” for “are”, “means±standard” for “means standard”
The reaction temperature was 37° C. The cholesterol ester in serum was first hydrolyzed into free cholesterol (FC) and fatty acid with cholesterol ester hydrolase (CEH). Then, all FC in serum was oxidized into ch-4-en-3-one and H2O2 with cholesterol oxidase (COD). The resulting H2O2 was reacted with 4-aminoantipyrine (4-AAP) and 4-chlorophenol in the presence of peroxidase (POD) (Trinder reaction), to yield red quinine imine, which was calorimetrically tested at a 500 nm wavelength.
The reaction temperature was 37° C. The triglyceride ire serum was first hydrolyzed into glycerol and fatty acid with lipoprotein lipase (LPL). The resulting glycerol was reacted with ATP in the presence of glycerol kinase (GK), to produce glycerol-3-phosphate and ADP. The resulting glycerol-3-phosphate was oxidized into dihydroxyacetone phosphate and H2O2 with oxygen in the presence of glycerol phosphate oxidase (GPO). The resulting H2O2 was reacted with 4-aminoantipyrine (4-AAP) and 4-chlorophenol in the presence of peroxidase (POD) (Trinder reaction), to yield red quinine imine, which was colorimetrically determined at a 500 nm wavelength.
The LDL in serum was precipitated using PVS. The serum TC and the Ch in the resulting supernatant were determined using the enzymatic methods described hereinabove, and the LDL-C was calculated by subtracting the Ch from the serum TC. The polyethylene glycol monoether (PEGME) was added in a suitable amount in order to facilitate the precipitation of LDL. […]

[3] = group mean n=10, 15th day after administration
[4] = rats No. 1-10, 0.046 mmol/kg (Simvastatin 10 mg/kg), 15th day after administration

## CCC(C)(C)C(=O)O[C@H]1C[C@@H](C)C=C2C=C[C@H](C)[C@H](CC[C@@H]3C[C@@H](O)CC(=O)O3)[C@H]21 [Simvastatin]
[1]; Table 18, mean ± standard deviation, n=10
  Total cholesterol value: 9.59 ± 1.50
[1]; Table 19, mean ± standard deviation, n=10
  Triglyceride value: 2.62 ± 0.54 mmol/L
[1]; Table 20, mean ± standard deviation, n=10
  Low density lipoprotein cholesterol: 2.90 ± 0.67 mmol/L
[1]; Table 21, mean ± standard deviation, n=10
  High density lipoprotein cholesterol: 0.75 ± 0.20 mmol/L
[1]; [3]
  serum high density lipoprotein cholesterol (HDL) contents, Mean: 0.75 mmol/L
  serum low density lipoprotein cholesterol (LDL) contents, Mean: 2.90 mmol/L
  serum total cholesterol (TC) contents, Mean: 9.59 mmol/L
  serum triglyceride (TG) contents, Mean: 2.62 mmol/L
[1]; [4]
  serum high density lipoprotein cholesterol (HDL) contents, individual rats: 1.11 mmol/L and 0.93 mmol/L and 0.58 mmol/L and 0.67 mmol/L and 0.37 mmol/L and 0.81 mmol/L and 0.77 mmol/L and 0.92 mmol/L and 0.66 mmol/L and 0.72 mmol/L
  serum low density lipoprotein cholesterol (LDL) contents, individual rats: 2.51 mmol/L and 2.84 mmol/L and 2.67 mmol/L and 3.38 mmol/L and 1.97 mmol/L and 2.37 mmol/L and 3.71 mmol/L and 4.12 mmol/L and 3.12 mmol/L and 2.36 mmol/L
  serum triglyceride (TG) contents, individual rats: 1.95 mmol/L and 3.67 mmol/L and 2.38 mmol/L and 2.08 mmol/L and 2.27 mmol/L and 3.27 mmol/L and 2.67 mmol/L and 2.36 mmol/L and 2.68 mmol/L and 2.96 mmol/L
[1]; rats No. 1-10, hyperlipoidemia mode, drug 14 days, 0.046 mmol/kg (Simvastatin 10 mg/kg), 15th day after administration
  serum total cholesterol (TC) contents, individual rats: 7.61 mmol/L and 9.38 mmol/L and 8.81 mmol/L and 8.39 mmol/L and 12.67 mmol/L and 10.34 mmol/L and 9.37 mmol/L (2×) and 8.61 mmol/L and 11.34 mmol/L
[2]; Table 6, mean ± standard deviation, n=10
  Total cholesterol value: 13.88 ± 3.27
[2]; Table 7, mean ± standard deviation, n=10
  Triglyceride value: 1.22 ± 0.1841 mmol/L
[2]; Table 8, mean ± standard deviation, n=10
  Low density lipoprotein cholesterol: 4.223 ± 0.9989 mmol/L
[2]; Table 9, mean ± standard deviation, n=10
  High density lipoprotein cholesterol: 0.331 ± 0.0767 mmol/L
[2]; group mean n=10, 0.046 mmol/kg (Simvastatin 10 mg/kg), 15th day after administration
  serum total cholesterol (TC) contents, Mean: 13.88 mmol/L
[2]; [3]
  serum high density lipoprotein cholesterol (HDL) contents, Mean: 0.33 mmol/L
  serum low density lipoprotein cholesterol (LDL) contents, Mean: 4.22 mmol/L
  serum triglyceride (TG) contents, Mean: 1.22 mmol/L
[2]; [4]
  serum high density lipoprotein cholesterol (HDL) contents, individual rats: 0.26 mmol/L and 0.29 mmol/L and 0.31 mmol/L (2×) and 0.47 mmol/L and 0.39 mmol/L and 0.24 mmol/L and 0.33 mmol/L and 0.43 mmol/L and 0.28 mmol/L
  serum low density lipoprotein cholesterol (LDL) contents, individual rats: 5.81 mmol/L and 4.98 mmol/L and 5.32 mmol/L and 3.73 mmol/L and 5.14 mmol/L and 3.99 mmol/L and 3.33 mmol/L and 3.37 mmol/L and 3.63 mmol/L and 2.93 mmol/L
  serum triglyceride (TG) contents, individual rats: 1.12 mmol/L and 1.53 mmol/L and 0.93 mmol/L and 1.36 mmol/L and 1.26 mmol/L and 1.00 mmol/L and 1.19 mmol/L and 1.23 mmol/L and 1.31 mmol/L and 1.28 mmol/L
[2]; rats No. 1-10, high lipid feed plus drug 14 days, 0.046 mmol/kg (Simvastatin 10 mg/kg), 15th day after administration
  serum total cholesterol (TC) contents, individual rats: 19.21 mmol/L and 14.11 mmol/L and 12.51 mmol/L and 11.11 mmol/L and 9.19 mmol/L and 11.57 mmol/L and 10.31 mmol/L and 15.62 mmol/L and 13.60 mmol/L and 18.06 mmol/L
